Experimental data taken from ChEMBL document CHEMBL1201862, “PubChem BioAssay data set” (2004).
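Test compounds were applied to cells in 96-well plates for 48 hours at 5 doses. GI50: concentration for 50% inhibition of growth.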 Activity calls are given as the source filed them. No stated cut-off is given here; in the data, active = GI50 up to about 1.1 µM and inactive = higher.

Key:
Assay in all cases: growth of human tumour cells (NCI), 48 h
SK-OV-3 = test system: SK-OV-3
HT-29 = test system: HT-29
NCI-H226 = test system: NCI-H226
SF-268 = test system: SF-268
UACC-257 = test system: UACC-257
T47D = test system: T47D
HCT-15 = test system: HCT-15
MOLT-4 = test system: MOLT-4
OVCAR-8 = test system: OVCAR-8
SF-295 = test system: SF-295
TK-10 = test system: TK-10
HOP-62 = test system: HOP-62
UACC-62 = test system: UACC-62
SF-539 = test system: SF-539
HL-60 = test system: HL-60
NCI-H23 = test system: NCI-H23
BT-549 = test system: BT-549
SNB-19 = test system: SNB-19
CCRF-CEM = test system: CCRF-CEM
SK-MEL-5 = test system: SK-MEL-5

SMILES | GI50 (SK-OV-3) | GI50 (HT-29) | GI50 (NCI-H226) | GI50 (SF-268) | GI50 (UACC-257) | GI50 (T47D) | GI50 (HCT-15) [µM] | GI50 (MOLT-4) | GI50 (OVCAR-8) | GI50 (SF-295) | GI50 (TK-10) | GI50 (HOP-62) | GI50 (UACC-62) | GI50 (SF-539) | GI50 (HL-60) | GI50 (NCI-H23) | GI50 (BT-549) | GI50 (SNB-19) | GI50 (CCRF-CEM) | GI50 (SK-MEL-5)
COc1cc(/C=N/c2ccc(Oc3ccc(Cl)cc3)c(Cl)c2)cc(OC)c1OC | > 10 µM (inactive) | 22.2 µM (inactive) | 26.6 µM (inactive) | 12.4 µM (inactive) | 20.7 µM (inactive) | 3.53 µM (inactive) | 19.5 | 24.9 µM (inactive) | 25.8 µM (inactive) | 18.2 µM (inactive) | 32.9 µM (inactive) | 23.8 µM (inactive) | 15.3 µM (inactive) | 16.4 µM (inactive) | 15 µM (inactive) | 20.2 µM (inactive) | 15.9 µM (inactive) | 21.8 µM (inactive) | 12.4 µM (inactive) | 17.7 µM (inactive)
C[C@H]1CC[C@@H]2[C@@H](C)C[C@H]3[C@@H]4C(C)(C)OC(=O)[C@]4(C)C(=O)[C@@]23C1=O | > 100 µM (inactive) | > 100 µM (inactive) | > 100 µM (inactive) | > 100 µM (inactive) | > 100 µM (inactive) | 14 µM (inactive) | > 100 | > 100 µM (inactive) | > 100 µM (inactive) | > 100 µM (inactive) | > 100 µM (inactive) | > 100 µM (inactive) | > 100 µM (inactive) | > 100 µM (inactive) | > 100 µM (inactive) | > 100 µM (inactive) | > 100 µM (inactive) | > 100 µM (inactive) | > 100 µM (inactive) | > 100 µM (inactive)
C[C@H]1[C@H](N2CCCC2)O[Si](C(C)(C)C)(C(C)(C)C)[C@@H]1C | > 100 µM (inactive) | > 100 µM (inactive) | > 100 µM (inactive) |  | > 100 µM (inactive) | > 100 µM (inactive) | > 100 | > 100 µM (inactive) | > 100 µM (inactive) | > 100 µM (inactive) | > 100 µM (inactive) | > 100 µM (inactive) | > 100 µM (inactive) | > 100 µM (inactive) | 13.7 µM (inactive) | > 100 µM (inactive) | > 100 µM (inactive) | 0.964 µM (active) | 36.2 µM (inactive) | > 100 µM (inactive)
COC(=O)c1ccc2cc(O)c(O)cc2c1 | 70.8 µM (inactive) | 37.4 µM (inactive) | 38.9 µM (inactive) | 16.6 µM (inactive) | 29.8 µM (inactive) | 25.8 µM (inactive) | 33 | 15.5 µM (inactive) | 33 µM (inactive) | 38.3 µM (inactive) | 27.9 µM (inactive) | 56 µM (inactive) | 26.2 µM (inactive) | 40 µM (inactive) | > 100 µM (inactive) | 26.5 µM (inactive) | 21.2 µM (inactive) | 22.8 µM (inactive) | 18.9 µM (inactive) | 22.1 µM (inactive)
